Measurements taken from the CheMixHub viscosity set.

Assay: xn = mol fraction of the nth substance listed

CCCC[N+](CCCC)(CCCC)CCCC.[OH-] + CS(C)=O
viscosity [mPa·s], 100 kPa
Conditions	298.15 K	303.15 K	308.15 K	313.15 K
x1 = 0.0159	2.19	2.01	1.87	1.77
x1 = 0.0368	2.43	2.31	2.19	2.12
x1 = 0.0632	2.72	2.58	2.47	2.38
x1 = 0.0911	3.02	2.88	2.77	2.7
x1 = 0.1206	3.32	3.18	3.08	3
x1 = 0.1519	3.65	3.5	3.4	3.33
x1 = 0.2183	4.25	4.13	4.07	4.02
x1 = 0.2907	4.86	4.75	4.69	4.65
x1 = 0.3787	5.51	5.38	5.33	5.29
x1 = 0.4429	5.92	5.79	5.73	5.69
x1 = 0.5298	6.4	6.26	6.17	6.13
x1 = 0.6052	6.71	6.56	6.45	6.42
x1 = 0.6947	6.97	6.82	6.67	6.62
x1 = 0.7486	7.03	6.88	6.74	6.7
x1 = 0.8273	7.07	6.93	6.77	6.7
x1 = 0.8964	7	6.85	6.69	6.54
x1 = 0.9481	6.86	6.7	6.53	6.42
x1 = 0.9765	6.76	6.61	6.42	6.32

CC(Cl)(Cl)Cl + C[N+](=O)[O-]
298.15 K, 101.33 kPa
Conditions	viscosity [mPa·s]
x1 = 0.101	0.6114
x1 = 0.201	0.6128
x1 = 0.251	0.6165
x1 = 0.301	0.622
x1 = 0.351	0.6284
x1 = 0.4	0.6356
x1 = 0.451	0.6435
x1 = 0.5	0.6518
x1 = 0.55	0.6607
x1 = 0.551	0.6609
x1 = 0.6	0.6702
x1 = 0.65	0.6803
x1 = 0.651	0.6805
x1 = 0.7	0.6912
x1 = 0.749	0.703
x1 = 0.812	0.7202
x1 = 0.867	0.7375

O=C(O)CC(O)(CC(=O)O)C(=O)O + C[N+](C)(C)CCO.[Cl-]
viscosity [mPa·s], x2 = 0.5
Conditions	298 K	303 K	313 K	323 K
101 kPa	–	2085000	510000	–
101.3 kPa	14480	–	–	2242

O=C(O)CC(O)(CC(=O)O)C(=O)O + C[N+](C)(C)Cc1ccccc1.[Cl-]
Conditions	viscosity [mPa·s]
323.1 K, 101 kPa, x2 = 0.5	88750

CCCCCBr + Cc1cc(C)cc(C)c1
308.15 K, 101 kPa
Conditions	viscosity [mPa·s]
x2 = 0.1098	0.6376
x2 = 0.2005	0.6292
x2 = 0.2983	0.6179
x2 = 0.4035	0.6093
x2 = 0.4979	0.6042
x2 = 0.6027	0.5945
x2 = 0.802	0.5739
x2 = 0.8481	0.5719
x2 = 0.9023	0.5699

CC(Cl)(Cl)Cl + Cc1ccc(C)cc1
303.15 K, 101 kPa
Conditions	viscosity [mPa·s]
x1 = 0.1341	0.6079
x1 = 0.2166	0.632
x1 = 0.3072	0.6566
x1 = 0.4291	0.6846
x1 = 0.5112	0.6988
x1 = 0.6202	0.7113
x1 = 0.69	0.7164
x1 = 0.7824	0.7206
x1 = 0.8403	0.7216
x1 = 0.9044	0.7226
